The subject of this experiment is BDF1 mice, P329 reticulum cell sarcoma ip, survival T/C. In words: NCI In Vivo Anticancer Drug Screen. Data for tumor model P329 Reticulum Cell Sarcoma (intraperitoneal) in B6D2F1 (BDF1) mice. As to conditions: endpoint: median survival time, higher = longer survival. The protocol:
The antitumor activity of compounds was measured in mice bearing transplantable tumors. Survival or tumor size were measured and the results are expressed as the measurement made in the treated group (T) divided by the measurement made in the vehicle treated control group (C). The tumor model used in this assay is P329 Reticulum Cell Sarcoma (intraperitoneal) in B6D2F1 (BDF1) mice

Setting [1] is: dose: 0.5 mg/kg/injection, schedule: Q01DX010 (ip), vehicle: saline.
Where [2] appears, read: dose: 1.0 mg/kg/injection, schedule: Q01DX010 (ip), vehicle: saline.
[3] abbreviates: dose: 12.5 mg/kg/injection, schedule: Q01DX010 (ip), vehicle: saline.
Setting [4] is: dose: 25.0 mg/kg/injection, schedule: Q01DX010 (ip), vehicle: saline.
[5] abbreviates: dose: 50.0 mg/kg/injection, schedule: Q01DX010 (ip), vehicle: saline.
The mark [6] stands for this setting: dose: 31.3 mg/kg/injection, schedule: Q01DX010 (ip), vehicle: saline.
[7] abbreviates: dose: 125.0 mg/kg/injection, schedule: Q01DX010 (ip), vehicle: saline.
[8] abbreviates: dose: 18.8 mg/kg/injection, schedule: Q01DX010 (ip), vehicle: saline.
Setting [9] is: dose: 37.5 mg/kg/injection, schedule: Q01DX010 (ip), vehicle: saline.
Setting [10] is: dose: 75.0 mg/kg/injection, schedule: Q01DX010 (ip), vehicle: saline.
[11] abbreviates: dose: 62.5 mg/kg/injection, schedule: Q01DX010 (ip), vehicle: saline.
The mark [12] stands for this setting: dose: 5.0 mg/kg/injection, schedule: Q01DX010 (ip), vehicle: saline.
The mark [13] stands for this setting: dose: 10.0 mg/kg/injection, schedule: Q01DX010 (ip), vehicle: saline.
Setting [14] is: dose: 2.0 mg/kg/injection, schedule: Q01DX010 (ip), vehicle: saline.
[15] abbreviates: dose: 4.0 mg/kg/injection, schedule: Q01DX010 (ip), vehicle: saline.
The mark [16] stands for this setting: dose: 8.0 mg/kg/injection, schedule: Q01DX010 (ip), vehicle: saline.
Where [17] appears, read: dose: 16.0 mg/kg/injection, schedule: Q01DX010 (ip), vehicle: saline.
The mark [18] stands for this setting: dose: 32.0 mg/kg/injection, schedule: Q01DX010 (ip), vehicle: saline.
Setting [19] is: dose: 64.0 mg/kg/injection, schedule: Q01DX010 (ip), vehicle: saline.
[20] abbreviates: dose: 2.5 mg/kg/injection, schedule: Q01DX010 (ip), vehicle: saline.
Setting [21] is: dose: 62.5 micrograms/kg/injection, schedule: Q01DX010 (ip), vehicle: saline.
Where [22] appears, read: dose: 125.0 micrograms/kg/injection, schedule: Q01DX010 (ip), vehicle: saline.
Setting [23] is: dose: 250.0 micrograms/kg/injection, schedule: Q01DX010 (ip), vehicle: saline.
Setting [24] is: dose: 500.0 micrograms/kg/injection, schedule: Q01DX010 (ip), vehicle: saline.
Setting [25] is: dose: 1.5 mg/kg/injection, schedule: Q01DX010 (ip), vehicle: saline.
The mark [26] stands for this setting: dose: 6.0 mg/kg/injection, schedule: Q01DX010 (ip), vehicle: saline.
Setting [27] is: dose: 3.0 mg/kg/injection, schedule: Q01DX010 (ip), vehicle: saline.
Setting [28] is: dose: 12.0 mg/kg/injection, schedule: Q01DX010 (ip), vehicle: saline.

31 molecules from PubChem BioAssay AID320 (DTP/NCI, 2004) can be followed below.

Values joined by “and” are separate entries in the source; they are usually repeats but may differ in a detail not shown here. Equal entries are not always repeated. Toxic doses and inconclusive results are not listed.

For `C1CN1c1nc(N2CC2)nc(N2CC2)n1`, the T/C by setting is: (dose: 0.13 mg/kg/injection, schedule: Q01DX010 (ip), vehicle: saline) 96 % of control and 108 % of control; (dose: 0.25 mg/kg/injection, schedule: Q01DX010 (ip), vehicle: saline) 115 % of control; under setting [1], 170 % of control; under setting [2], 150 % of control.

As to `COS(C)(=O)=O`, the T/C was 100 % of control under setting [3], 93 % of control under setting [4] and 116 % of control under setting [5].

`CCn1cnc2c(=S)nc[nH]c21`: the T/C was 111 % of control and 114 % of control (dose: 15.6 mg/kg/injection, schedule: Q01DX010 (ip), vehicle: saline); 114 % of control and 123 % of control under setting [6]; 89 % of control and 100 % of control under setting [7].

In the case of `CS(=O)(=O)OCCCl`, the T/C by setting is: (dose: 9.4 mg/kg/injection, schedule: Q01DX010 (ip), vehicle: saline) 107 % of control; under setting [8], 96 % of control and 100 % of control; under setting [9], 92 % of control and 107 % of control; under setting [10], 92 % of control and 107 % of control.

For `Nc1nc2n[nH]nc2c(=O)[nH]1`, the T/C is 153 % of control (dose: 100.0 mg/kg/injection, schedule: Q01DX010 (ip), vehicle: alkali diluted with saline) and 150 % of control (dose: 200.0 mg/kg/injection, schedule: Q01DX010 (ip), vehicle: alkali diluted with saline).

Take `CC/C(=C(/CC)c1ccc(O)cc1)c1ccc(O)cc1`: the T/C under setting [3] was 107 % of control; the T/C under setting [4] was 96 % of control and 107 % of control; the T/C under setting [5] is 100 % of control and 103 % of control; the T/C (dose: 100.0 mg/kg/injection, schedule: Q01DX010 (ip), vehicle: saline) is 88 % of control.

As for `CCCSc1ncnc2nc[nH]c12`, the T/C under setting [6] was 115 % of control and 123 % of control; the T/C under setting [11] is 107 % of control; the T/C under setting [7] is 107 % of control.

Turning to `O=c1[nH]cc(F)c(=O)[nH]1`, the T/C under setting [12] was 123 % of control; the T/C (dose: 20.0 mg/kg/injection, schedule: Q01DX010 (ip), vehicle: saline) was 161 % of control and 162 % of control.

For the molecule `COc1ccc2c(c1OC)C(=O)O[C@@H]2[C@H]1c2c(cc3c(c2OC)OCO3)CCN1C`, the T/C under setting [11] was 92 % of control.

`CN(C)c1nc(N(C)C)nc(N(C)C)n1`: the T/C is, setting by setting: under setting [8], 96 % of control and 103 % of control; under setting [9], 92 % of control and 100 % of control; under setting [10], 92 % of control and 107 % of control; (dose: 150.0 mg/kg/injection, schedule: Q01DX010 (ip), vehicle: saline) 107 % of control and 114 % of control.

Consider `CS(=O)(=O)OCCN(CCOS(C)(=O)=O)c1ccc(N=O)cc1`, for which the T/C under setting [2] was 107 % of control.

`CO[C@H](C(=O)[C@@H](O)[C@@H](C)O)[C@@H]1Cc2cc3cc(OC4CC(OC5CC(O)C(O)C(C)O5)C(O)C(C)O4)c(C)c(O)c3c(O)c2C(=O)[C@H]1OC1CC(OC2CC(OC3CC(C)(O)C(O)C(C)O3)C(O)C(C)O2)C(O)C(C)O1` (some centres not stated): the T/C was 103 % of control under setting [1] and 90 % of control under setting [2].

In the case of `CC(=O)Nc1ccc2nc3ccc(NC(C)=O)cc3[n+](-c3ccccc3)c2c1`, the T/C was 121 % of control under setting [4] and 114 % of control under setting [5].

As for `NC(Cc1ccc(N(CCCl)CCCl)cc1)C(=O)O` (configuration not stated), the T/C under setting [12] is 153 % of control and the T/C under setting [13] was 175 % of control.

In the case of `CC(CCC(C)OS(C)(=O)=O)OS(C)(=O)=O` (configuration not stated), the T/C is, setting by setting: under setting [14], 100 % of control and 107 % of control; under setting [15], 103 % of control and 107 % of control; under setting [16], 114 % of control and 115 % of control.

Consider `Nc1nc(SCc2ccccc2)c2[nH]cnc2n1`, for which the T/C is, setting by setting: under setting [16], 100 % of control and 121 % of control; under setting [17], 114 % of control and 121 % of control; under setting [18], 117 % of control; under setting [19], 89 % of control.

For the molecule `Cn1cnc([N+](=O)[O-])c1Sc1nc(N)nc2nc[nH]c12`, the T/C reads like this: under setting [20], 150 % of control; under setting [13], 100 % of control.

For `COC(=O)[C@@H]1c2cc3c(c(O)c2[C@@H](OC2OC(C)C(OC)C(C)(OC)C2OC)C[C@]1(C)O)C(=O)c1c(O)cc2c(c1C3=O)O[C@H]1O[C@]2(C)[C@H](O)[C@@H](N(C)C)[C@@H]1O` (some centres not stated), the T/C under setting [21] is 100 % of control; the T/C under setting [22] was 93 % of control and 100 % of control; the T/C under setting [23] is 90 % of control and 100 % of control; the T/C under setting [24] was 93 % of control and 100 % of control.

`CCN(CCNc1ccc(C)c2sc3cc(Cl)ccc3c(=O)c12)CC(C)O` (configuration not stated): the T/C by setting is: under setting [6], 100 % of control; (dose: 250.0 mg/kg/injection, schedule: Q01DX010 (ip), vehicle: saline) 92 % of control.

With `S=P(N1CC1)(N1CC1)N1CC1`, the T/C by setting is: (dose: 0.75 mg/kg/injection, schedule: Q01DX010 (ip), vehicle: saline) 103 % of control and 107 % of control; under setting [25], 111 % of control; under setting [26], 115 % of control and 123 % of control.

Regarding `C[C@]12C=CC(=O)C=C1CC[C@@H]1[C@@H]2C(=O)C[C@@]2(C)[C@H]1CC[C@]2(O)C(=O)CO`, the T/C (dose: 12.5 mg/kg/injection, schedule: Q01DX010 (sc), vehicle: steriod suspending solution) was 95 % of control and 104 % of control.

Consider `O=c1cnn(C2OC(CO)C(O)C2O)c(=O)[nH]1` (configuration not stated), for which, where the note is “dose: 200.0 mg/kg/injection, schedule: Q01DX010 (ip), vehicle: saline”, the T/C was 116 % of control.

As for `O=P1(N(CCCl)CCCl)NCCCO1` (configuration not stated), the T/C runs as follows: (dose: 11.3 mg/kg/injection, schedule: Q01DX010 (ip), vehicle: saline) 106 % of control and 121 % of control; (dose: 22.5 mg/kg/injection, schedule: Q01DX010 (ip), vehicle: saline) 86 % of control.

As for `Nc1ncnc2[nH]ncc12`, the T/C under setting [25] was 107 % of control; the T/C under setting [27] is 111 % of control; the T/C under setting [26] is 123 % of control; the T/C under setting [28] is 88 % of control and 103 % of control.

For `Oc1cc(CN(CCCl)CCCl)c(O)cc1CN(CCCl)CCCl`, the T/C is 103 % of control and 114 % of control (dose: 0.63 mg/kg/injection, schedule: Q01DX010 (ip), vehicle: saline); 114 % of control (dose: 1.25 mg/kg/injection, schedule: Q01DX010 (ip), vehicle: saline); 117 % of control under setting [20]; 96 % of control and 107 % of control under setting [12].

For the molecule `O[C@H](CN1CC1)[C@@H](O)CN1CC1`, the T/C was 106 % of control and 121 % of control under setting [21]; 123 % of control under setting [22]; 167 % of control under setting [23]; 166 % of control under setting [24].

With `CN(C)c1ccc(Nc2c3ccccc3nc3ccccc23)cc1`, the T/C was 121 % of control (dose: 36.0 mg/kg/injection, schedule: Q01DX010 (ip), vehicle: saline); 157 % of control (dose: 80.0 mg/kg/injection, schedule: Q01DX010 (ip), vehicle: saline); 153 % of control (dose: 120.0 mg/kg/injection, schedule: Q01DX010 (ip), vehicle: saline).

For the molecule `Cc1cc(N(CCCl)CCCl)ccc1N=Nc1ccccc1C(=O)O`, the T/C is 107 % of control and 114 % of control under setting [12]; 114 % of control under setting [13].

Turning to `N=C(N)c1ccc(Nc2ccc(C(=N)N)cc2)cc1`, the T/C under setting [25] was 93 % of control, the T/C under setting [27] was 87 % of control, the T/C under setting [26] is 96 % of control and the T/C under setting [28] was 90 % of control.

`O=C(Nc1ccc(C2=NCCN2)cc1)c1cccc(C(=O)Nc2ccc(C3=NCCN3)cc2)c1`: the T/C was 150 % of control and 176 % of control under setting [17]; 169 % of control and 180 % of control under setting [18]; 184 % of control and 196 % of control under setting [19].

`O=C(Nc1ccc(NC2=NCCN2)cc1)c1ccc(C(=O)Nc2ccc(NC3=NCCN3)cc2)cc1`: the T/C runs as follows: under setting [14], 153 % of control and 157 % of control; under setting [15], 173 % of control and 176 % of control; under setting [16], 184 % of control and 203 % of control; under setting [17], 88 % of control and 92 % of control.
